Source: patent US7317014B2, “Bio-active pyrimidine molecules” (Orchid Research Laboratories, Ltd., priority 2002, dated 2008)

How the values were obtained:
Male Wistar rats = assay: Rat carrageenan paw edema test; assay type: in vivo; details: oral
TNF-α = TNF-α production from LPS-stimulated human monocytes (ELISA); assay type: cell-based; details: Monocyte, Conc. 1 μM
COX-2 = target: T1, COX-2 (Homo sapiens, UniProt P35354); assay: Human whole blood assay, COX-2 inhibition (PGE2 after LPS); assay type: cell-based; details: Conc. 0.1 μM, 24 h
T1 construct: incubation of human blood with lipopolysaccharide (LPS), which induces COX-2 production in the blood; endogenous in cells; host or cells: fresh human whole blood from male volunteers, LPS-stimulated, aspirin-pretreated
T1 sequence (P35354 18-604): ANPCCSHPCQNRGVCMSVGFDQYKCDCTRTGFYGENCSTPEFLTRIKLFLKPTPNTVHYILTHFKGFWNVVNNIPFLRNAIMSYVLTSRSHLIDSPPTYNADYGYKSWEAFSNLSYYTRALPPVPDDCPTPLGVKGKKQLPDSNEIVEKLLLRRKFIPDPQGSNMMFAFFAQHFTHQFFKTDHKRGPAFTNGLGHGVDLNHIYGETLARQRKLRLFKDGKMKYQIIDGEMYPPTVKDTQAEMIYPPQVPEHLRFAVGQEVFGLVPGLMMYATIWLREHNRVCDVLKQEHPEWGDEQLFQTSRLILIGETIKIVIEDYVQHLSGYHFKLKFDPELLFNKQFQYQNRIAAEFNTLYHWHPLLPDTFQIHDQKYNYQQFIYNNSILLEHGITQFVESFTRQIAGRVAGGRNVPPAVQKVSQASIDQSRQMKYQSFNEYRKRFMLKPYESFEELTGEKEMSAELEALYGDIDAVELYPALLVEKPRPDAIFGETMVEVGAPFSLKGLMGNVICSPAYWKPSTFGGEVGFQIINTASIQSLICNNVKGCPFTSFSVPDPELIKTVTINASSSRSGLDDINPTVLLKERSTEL
Method: The COX-2 inhibition activity of the compounds illustrated in the examples was determined by the following method. Human Whole Blood Assay Human whole blood provides a protein and cell rich milieu appropriate for the study of biochemical efficacy of anti-inflammatory compounds such as selective COX-2 inhibitors. […] This is correlating with the observation that COX-2 inhibitors have no effect on prostaglandin E2 (PGE2) production in normal blood. These inhibitors are active only after incubation of human blood with lipopolysaccharide (LPS), which induces COX-2 production in the blood. Method Fresh blood was collected in tubes containing potassium EDTA by vein puncture from male volunteers. The subjects should have no apparent inflammatory conditions and not taken NSAIDs for atleast 7 days prior to blood collection. Blood was treated with aspirin in vitro (10 μg/ml, at time zero) to inactivate COX-1, and then with LPS (10 μg/ml) along with test agents or vehicle. The blood was incubated for 24 h at 37° C., after which the tubes were centrifuged, the plasma was separated and stored at −80° C. (J. Pharmacol. Exp. Ther., 271, 1705, 1994; Proc. Natl. Acad. Sci. USA., 96, 7563, 1999). The plasma was assayed for PGE2 using Cayman ELISA kit as per the procedure outlined by the manufacturer (Cayman Chemicals, Ann Arbor, USA). The plasma was also tested for TNF-α, IL-1β, and IL-6 using appropriate human ELISA kit as per the procedure of manufacturer (Cayman Chemicals, Ann Arbor, USA).

SF-268 = assay: DTP human tumor cell line one-dose prescreen, SF-268; assay type: cell-based; details: Concentration (100 μm), CNS SF-268, test/control (T/C)
Method: (§1) The current assay utilizes a 384 well plate format and fluorescent staining technologies resulting in greater screening capacity for testing of synthetic samples. Cell Lines The cell lines of the cancer screening panel are grown in RPMI 1640 medium containing 5% fetal bovine serum and 2 mM L-glutamine. For a typical screening experiment, cells are inoculated into 96 well microtiter plates in 100 μL. After cell inoculation, the microtiter plates are incubated at 37° C., 5% CO2, 95% air and 100% relative humidity for 24 h prior to addition of experimental drugs. The cells are plated a densities of 5000 cells/well (MCF7), 1000 cells/well (NCI-H460), and 7500 cells/well (SF-268) to allow for varying doubling time of the cell lines. Each plate contains all three cell lines, a series of dilutions of standard agents, total kill wells and appropriate controls. Plates are incubated under standard conditions for 24 hours prior to addition of experimental compounds or extracts. Addition of Experimental Agents (Pure Compounds) […] Two standard drugs, meaning that their activities against the cell lines are well documented, are tested against each cell line: NSC 19893 (5-FU) and NSC 123127 (Adriamycin). Endpoint Measurement After compound addition, plates are incubated at standard conditions for ?hours, 10 μl/well Alamar Blue is added and the plates are incubated for an additional 4 hours. Fluorescence is measured using an excitation wavelength of 530 nm and an emission wavelength of 590 nm. Calculation of Percent Test Cell Growth/Control (Untreated) Cell Growth (T/C) Calculation of Percent Test Cell Growth/Control (Untreated) Cell Growth (T/C) Percent growth is calculated on a plate-by-plate basis for test wells relative to control wells. Percent Growth is expressed as the ratio of fluorescence of the test well to the average fluorescence of the control wells ×100.

NCI-H460 = assay: DTP human tumor cell line one-dose prescreen, NCI-H460; assay type: cell-based; details: Concentration (100 μm), Lung NCI-H460, test/control (T/C)
Method: as §1

MCF7 = assay: DTP human tumor cell line one-dose prescreen, MCF7; assay type: cell-based; details: Concentration (100 μm), Breast MCF7, test/control (T/C)
Method: as §1

## CS(=O)(=O)c1ccc(-c2nc(C(F)(F)F)nc(Cl)c2-c2ccc(F)cc2)cc1 [Example 6, 4-chloro-5-(4-fluorophenyl)-6-[4-(methylsulfonyl)phenyl]-2-(trifluoromethyl)pyrimidine]
Male Wistar rats
  Rat Paw Edema model % Inhibition (10 mg/kg body weight): 64%
TNF-α
  inhibition at 1 µM: 51.5%
COX-2
  inhibition at 0.1 µM: 51.9%
SF-268
  Percentage Growth CNS SF-268: 12
NCI-H460
  Percentage Growth Lung NCI-H460: 0
other
  melting point: 195 to 197 °C
MCF7
  Percentage Growth Breast MCF7: 0
